Like-named read-outs stand apart in the source and are kept apart here.
Legend:
cancer in patients = test: Treatment of individual cancer patients (clinical parameters and tumor markers); assay type: in vivo, human; conditions: monotherapy, in words
Protocol: The arrow symbol represents the timepoint at which docetaxel was reduced to 60 mg/m2.

MT-2 cells = test: CC50 in MT-2 cells (antiviral assay panel); assay type: cell-based, human; conditions: HIV-1 assay line
HCV genotype 1b replicon = test: HCV subgenomic replicon assay, genotype 1b; assay type: cell-based; conditions: Hepatitis C virus
[1] = 786-O xenograft study: body weight and clinical observations; conditions: 786-O study, in words
[2] = tested on: c-Myc expression in 786-O cells; test: Western blot of protein expression in 786-O Renal Cancer Cell line (FIG. 7A); assay type: cell-based; conditions: different dose levels (1 μM and 10 μM), in words
From the text: The Vinculin, c-Myc, Survivin, ornithine decarboxylase (ODC), Cyclin D and pS6 mRNA are cap-dependent mRNAs that are considered difficult to translate. The blots for each mRNA shown were translated via a cap-independent manner with mTOR inhibition (Akt has been inactivated).

Caki-1 cells = test: Caki-1 renal cell carcinoma xenograft (VHL-positive), tumor volume; assay type: in vivo, mice; conditions: for Tumor size (mean±SD): PO
Protocol: The Caki-1 cell line expresses the von Hippel-Lindau (VHL) protein which acts as a tumor suppressor by promoting the rapid degradation of HIF-1α (hypoxia-inducible factor 1α) under normoxia. Under hypoxic conditions, HIF-1α is stabilized and activated by the inability of VHL to act resulting in increased transcription of VEGF that is responsible for the high vascularization of RCC (see Turcotte et al, 2003, Zimmer et al, 2004).
(§1) A total of 100 mice were injected, of which 60 were used in the study.
Groups were taken off study when the mean tumor volume in a group was 1300 mm^3 or more. Vehicle-treatment started on Day 0 and continued through Day 35. Compound #10-treatment started on Day 0 and continued through Day 52.
(§2) Tumors were measured twice per week using digital calipers.
[…] The median values were reported.

HSV-1 = HSV-1 CPE protection assay in Vero cells; assay type: cell-based, herpes simplex virus-1
Vero cells = conditions: monkey
[3] = tested on: protein expression in RCC lines 786-0, 769-P and A498; test: Western blot of protein expression in panel of RCC lines (786-0, 769-P and A498) (FIG. 8); assay type: cell-based; conditions: monotherapy at different μM dose levels; in words
WNV = WNV CPE protection assay in Vero cells (MTS); assay type: cell-based, West Nile virus
Protocol: Antiviral activity of a Compound against WNV is tested in Vero cells by protection of virus induced cytopathic effects (i.e. cytoprotection measured as cell viability, IC50). The effect of a Compound on inhibition of virus induced cytopathic effects is determined using MTS (CellTiter) assay.

HIV-1 = HIV-1 CPE protection assay in MT-2 cells; assay type: cell-based
Protocol: Antiviral activity against HIV-1 is determined in a human cell line. […] The activity against HIV may also be tested in human peripheral blood mononuclear cells in cell culture.

Parainfluenza = Parainfluenza CPE protection assay in Vero cells; assay type: cell-based, parainfluenza virus
RSV = RSV CPE protection assay in Vero cells; assay type: cell-based, respiratory syncytial virus
PV strain Mahoney = test: microbe, parasite or virus in culture; assay type: cell-based, poliovirus
786-O cells = test: 786-O renal cell carcinoma xenograft (VHL-negative), tumor volume; assay type: in vivo, mice; conditions: for Tumor size (mean±SD): PO
Protocol: Both sunitinib and rapamycin are used clinically for treatment of renal cancer.
as §1
Groups were taken off study when the mean tumor volume in a group was 1300 mm^3 or more. Vehicle-treatment started on Day 0 and continued through Day 57. Compound #10-treatment started on Day 0 and continued through Day 88.
as §2
The time to progression to reach a tumor volume 1000 mm^3 was calculated for each mouse. The median values were reported.

[4] = Whole-body autoradiography: brain tissue plasma concentration ratios (blood-brain barrier penetration); assay type: in vivo, rats; conditions: in words
MDCK cells = conditions: dog
Vaccinia = test: microbe, parasite or virus in culture; assay type: cell-based; conditions: Orthopoxvirus vaccinia, Vero C1008
Yellow Fever = test: microbe, parasite or virus in culture; assay type: cell-based, yellow fever virus
[5] = Caki-1 xenograft study: body weight and clinical observations; assay type: in vivo, mice; conditions: Caki-1 study
From the text: Body Weight: The mice were weighed once per week.

Dengue 2 = Dengue 2 CPE protection assay in Vero E6 cells; assay type: cell-based, dengue virus
Adenovirus = Adenovirus CPE protection assay in HeLa cells; assay type: cell-based
[6] = human respiratory syncytial virus, Vero

In the case of `COc1ccc([C@H]2c3[nH]c4ccc(Cl)cc4c3CCN2C(=O)Oc2ccc(Cl)cc2)cc1` (racemic) [Compound #10], the “Clinical outcome (FIG. 22)” value (cancer in patients; patient having cholangiocarcinoma, after four previous therapeutic modalities) is reported as “stabilization for a tumor marker”, the “Clinical outcome (FIG. 21)” value (cancer in patients; patient having chondrosarcoma, after one previous therapeutic modality) is reported as “stabilization and reduction in a number of clinical parameters and tumor markers” and the “Clinical outcome (FIG. 20)” value (cancer in patients; patient having melanoma, after two previous therapeutic modalities) is reported as “stabilization and reduction in a number of clinical parameters and tumor markers”. The “Clinical outcome (FIG. 19)” value (cancer in patients; patient having thyroid cancer, after three previous therapeutic modalities) was “stabilization and reduction in a number of clinical parameters and tumor markers”, the CC50 (MT-2 cells) was 4.1 nM and the IC50 (HCV genotype 1b replicon) was 1 nM. For the same compound, the IC50 (HCV genotype 1b replicon; read-out: average IC50) was 36 nM, the “Survival of treated mice” value ([1]; all mice) was “survived until sacrificed” and the “Body weight change from initial body weight” value [1] was “did not lose weight”. For the same compound, the “Suppression of c-Myc expression (FIG. 7A)” value [2] was “not completely effective in suppressing c-Myc expression”, the “Median time to reach 1500 mm^3” value (Caki-1 cells) was 39 days and the “Median time for tumors to reach 1000 mm^3” value (Caki-1 cells; Compound #10 10 mg/kg QD PO, sunitinib 75 mg/kg QD PO, rapamycin 15 mg/kg PO) was 39 days. The “Tumor size (mean±SD)” value (Caki-1 cells; Day 35, 10 mg/kg QD) was 866±450 mm^3, the “Tumors smaller than those in vehicle-treated mice” value (Caki-1 cells; Day 35, Compound #10 10 mg/kg QD PO, sunitinib 75 mg/kg QD PO, rapamycin 15 mg/kg PO) was 44% and the “Tumor size (mean±SD)” value (Caki-1 cells; Day 52, 10 mg/kg QD) was 1538±1070 mm^3. For the same compound, the IC50 (HSV-1; Human alphaherpesvirus 1, HSV-1, DNA, Vero, CPE protection) was over 1000 nM, the IC90 (HSV-1; Human alphaherpesvirus 1, HSV-1, Vero, CPE protection) was over 1000 nM and the “Inhibition of herpes simplex virus-1 (HSV-1)” value (HSV-1; at the doses tested, in words) was “did not inhibit”. The CC50 (Vero cells) was over 1000 nM, the “Effect on protein expression (FIG. 8)” value [3] was “dose-dependent and depended on the RCC line used” and the IC50 (WNV; West Nile virus, WNV, (+) RNA, Vero, CPE protection) was 67 nM. For the same compound, the IC90 (WNV; West Nile virus, WNV, Vero, CPE protection) was 280 nM, the “Activity against West Nile virus (WNV)” value (WNV; in words) was “potent activity” and the IC50 (HIV-1; Human immunodeficiency virus 1, MT2) was 22 nM. For the same compound, the EC50 (HIV-1; Human immunodeficiency virus 1, MT2, 72 h, human cell line, 3 days post-infection, normalized to cell number after treatment in the absence of infection, read-out: EC50, prevention of cytopathic effect) was 22 nM, the IC50 (Parainfluenza; Parainfluenza, (−) RNA, Vero, CPE protection) was 29 nM and the IC90 (Parainfluenza; Parainfluenza, Vero, CPE protection) was 44 nM. For the same compound, the “Activity against parainfluenza virus” value (Parainfluenza; in words) was “potent activity”, the CC50 (Vero E6 cells; Dengue 2 assay line) was 700 nM and the CC50 (Vero E6 cells; Vaccinia assay line) was 83 nM. The IC50 (RSV; [6]) was 250 nM, the IC90 (RSV; [6]) was at least 160 nM and the “Activity against respiratory syncytial virus (RSV)” value (RSV; in words) was “potent activity”. For the same compound, the IC50 (PV strain Mahoney; Enterovirus C, HeLa) was 0.57 nM, the IC90 (PV strain Mahoney; Enterovirus C, HeLa) was 2.8 nM and the IC50 (PV strain Mahoney; Enterovirus C, HeLa, read-out: average IC50) was 0.6 nM. The “decrease in activity when added at the time of infection” value (PV strain Mahoney; infected HeLa cells) was 65 fold, the “Median time for tumors to reach 1000 mm^3” value (786-O cells; Compound #10 10 mg/kg QD PO, sunitinib 75 mg/kg QD PO, rapamycin 15 mg/kg PO, time on study used if not reached) was 71 days and the “Tumor size (mean±SD)” value (786-O cells; Day 57, 10 mg/kg QD) was 945±408 mm^3. The “Tumors smaller than those in vehicle-treated mice” value (786-O cells; Day 57, Compound #10 10 mg/kg QD PO, sunitinib 75 mg/kg QD PO, rapamycin 15 mg/kg PO) was 34%, the “Tumor size (mean±SD)” value (786-O cells; Day 88, 10 mg/kg QD) was 1569±671 mm^3 and the “Cure (tumor size <60 mm^3, not measurable)” value (786-O cells; Mouse 2-10, 10 mg/kg, in words) was “cured”. For the same compound, the Blood-brain barrier penetration [4] was “penetrates the blood-brain barrier”, the CC50 (MDCK cells) was over 1000 nM and the IC50 (Vaccinia) was 40 nM. It also gave an IC90 (Vaccinia) of 80 nM, an IC50 (Yellow Fever; Yellow fever virus, HeLa) of over 1000 nM and an IC90 (Yellow Fever; Yellow fever virus, HeLa) of over 1000 nM. The “Activity against yellow fever” value (Yellow Fever; at the doses tested, in words) was “inactive”, the “Body weight loss from Day 0” value ([5]; Day 8 and Day 14) was 2.2% and the “Survival of treated mice” value ([5]; all mice, in words) was “survived until sacrificed”. The “Body weight change from initial body weight” value ([5]; in words) was “transiently lost weight”, the IC50 (Dengue 2; Dengue virus, Vero C1008, Dengue 2, (+) RNA, Vero E6, CPE protection) was over 1000 nM and the IC90 (Dengue 2; Dengue virus, Vero C1008, Dengue 2, Vero E6, CPE protection) was over 1000 nM. For the same compound, the Activity against dengue (Dengue 2; at the doses tested, in words) was “inactive”, the Inhibition of adenovirus (Adenovirus; at the doses tested, in words) was “did not inhibit” and the IC50 (Adenovirus; unidentified adenovirus, Adenovirus, DNA, HeLa, CPE protection) was over 1000 nM. For the same compound, the IC90 (Adenovirus; unidentified adenovirus, Adenovirus, HeLa, CPE protection) was over 1000 nM.

— patent publication US11613538B2, “Method of inhibiting or reducing a viral infection” (PTC Therapeutics, Inc., priority 2009, dated 2023)
